# Reference: paper PMC4741889, “Ligand-based chemoinformatic discovery of a novel small molecule inhibitor targeting CDC25 dual specificity phosphatases and displaying in vitro efficacy against melanoma cells” (Oncotarget, 2015)
# Experiments:
# A2058 cells = assay: Mitochondrial membrane potential (R123), A2058 cells; assay type: cell-based, human; settings: A2058, 100 μM, 24 h up to 72 h
# Experimental: (§1) Mitochondria represent the primary source of ROS, as well the target of ROS action, and therefore, compound 7 could affect their functionality in melanoma cells. […] Proteins belonging to the B-cell lymphoma-2 (Bcl-2) family are involved in the modulation of the mitochondrial functionality. Therefore, we have evaluated the levels of the anti-apoptotic protein Bcl-2, as well as that of the pro-apoptotic Bcl-2-associated X protein (Bax), after incubation with 7 (Figure 10B). […] To further investigate the occurrence of a mitochondrial-mediated apoptosis induced by 7, the caspase-9 activity was assayed. […] The effect of compound 7 was investigated also in SAN cells and the overall results were similar to those observed in A2058 (Supplementary Figure S6).
# Mitochondrial membrane potential was evaluated by measuring the incorporation of the fluorescent probe R123, essentially as previously described. Briefly, cells were seeded into 6-well-plates (3 × 10^5 cells/well) for 24 h at 37°C, and then incubated at 37°C for 1 h in the presence of 5 μM R123, washed twice with PBS, and placed in medium containing 100 μM compound 7 or 0.5% DMSO. […] The fluorescence of cell-associated R123 was detected in the above-mentioned fluorescence spectrophotometer, using excitation and emission wavelengths of 490 and 520 nm, respectively; both excitation and emission slits were set at 10 nm.
# CDC25A = target: T1, CDC25A (Homo sapiens, UniProt P30304); assay: Ki from OMFP hydrolysis kinetics (Lineweaver-Burk), CDC25A; assay type: biochemical; settings: 20 nM CDC25A, 1–25 μM OMFP; mean ± S.E.; read-out: Ki CDC25A
# T1 construct: Recombinant forms of the catalytic domains of CDC25A, -B and -C were obtained through the vectors pET28a-CDC25A-cd, pET28a-CDC25B-cd and pET28a-CDC25C-cd; made in house
# T1 sequence (P30304 376-482 limits assumed): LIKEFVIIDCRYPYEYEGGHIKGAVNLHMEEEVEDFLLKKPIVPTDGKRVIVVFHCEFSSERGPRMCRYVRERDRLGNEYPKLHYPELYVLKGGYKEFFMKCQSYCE
# Experimental: To measure the inhibition constant (Ki) of the recombinant forms of CDC25A, -B and -C towards the various inhibitors, the affinity of the different forms of CDC25 towards OMFP was measured either in the absence or in the presence of fixed concentrations of the various inhibitors. The reaction mixture contained 20 nM CDC25A, or 10 nM CDC25B, or 40 nM CDC25C, and different concentrations of the various inhibitors in 500 μL final volume of 20 mM Tris-HCl, pH 7.8, 1 mM DTT. DMSO was used as vehicle control. […] The corresponding Lineweaver-Burk plots allowed the calculation of the KM for OMFP and of the Vmax of OMFP hydrolysis, expressed as a.u./minmax. […] The Ki values were obtained from the decrease of a.u./minmax in the presence of the inhibitor, according to the equation a.u./mimmax’ = a.u./mimmax/{1 + ([I]/Ki)}, where a.u./mimmax’ represents the Vmax measured in the presence of the concentration [I] of the inhibitor. The Ki values were obtained from at least three independent experiments and reported as mean ± S.E.
# caspase-3 activity [1] = assay: Caspase-3 enzymatic activity in SAN cells; assay type: cell-based, human; settings: 100 μM
# Excerpt: (§2) PI incorporation followed by flow cytometric analysis was used to detect the effect of 7 on the number of nuclei with a sub-diploid content, a typical hallmark of apoptosis. A time-dependent increase of apoptosis was evident in both A2058 and SAN cells and in particular, the effect of 7 on cell death program was already evident after 24-h treatment (Figure 7). […] To further investigate on the capacity of 7 to induce apoptosis, the enzymatic activity of caspase-3, the final effector of apoptotic program, was monitored.
# (§3) To estimate caspase-3 and caspase-9 activity during the treatment with compound 7, the respective enzymatic activities were measured by using caspase-3 and -9 fluorimetric assay kits, according to the manufacturer's protocol, essentially as previously described. Briefly, cells were seeded into 75 cm^2 plates (2 × 10^6 cells/plate) for 24 h at 37°C and then treated with 100 μM 7 or 0.5% DMSO. At the end of each incubation, cells were collected, washed with PBS, and finally lysed at 4°C in the cell lysis buffer. Cell lysates were incubated with 50 μM DEVD-AFC or LEHD-AFC substrates at 37°C for 2 h, to detect caspase-3 or caspase-9 activity, respectively, using a Cary Eclipse fluorescence spectrophotometer (Varian). Excitation and emission wavelengths were set at 400 nm and 505 nm, respectively; both excitation and emission slits were set at 10 nm.
# caspase-3 activity [2] = assay: Caspase-3 enzymatic activity in A2058 cells; assay type: cell-based, human; settings: A2058, 100 μM
# Excerpt: as §2, §3
# [3] = system: Bcl-2 and Bax protein levels; assay: Western blotting of Bcl-2 and Bax protein levels in A2058 cells; assay type: cell-based, human; settings: A2058, 100 μM
# Experimental: as §1
# A2058 cells were seeded into 6-well-plates (3 × 10^5 cells/plate) for 24 h at 37°C and then treated at different times with 100 μM compound 7 or 0.5% DMSO. After treatment, cells were harvested, washed with PBS and then lysed in ice-cold modified radio immunoprecipitation assay (RIPA) buffer (50 mM Tris-HCl, pH 7.4, 150 mM NaCl, 1% Nonidet P-40, 0.25% sodium deoxycholate, 1 mM Na3VO4 and 1 mM NaF), supplemented with protease inhibitors and incubated for 30 min on ice. The supernatant obtained after centrifugation at 12,000 rpm for 30 min at 4°C constituted the total protein extract. The protein concentration was determined by the method of Bradford, using bovine serum albumin (BSA) as standard. Equal amounts of total protein extracts were used for Western blot analysis. […] The filter was incubated with the specific primary antibody at 4°C overnight and then with the secondary antibody at room temperature for 1 h. Membranes were then analysed by an enhanced chemiluminescence reaction, using Super Signal West Pico kit (Pierce) according to manufacturer's instruction; signals were visualized by autoradiography.
# SAN cells = assay: Apoptosis, subdiploid DNA content by PI flow cytometry, SAN cells; assay type: cell-based, human
# Excerpt: as §2
# […] After each treatment, cells were harvested with trypsin, centrifuged and the pellet was resuspended in phosphate-buffered saline (PBS). For cell cycle analysis, cells were fixed with 70% (v/v) cold ethanol and stored at −20°C for 1 h. Then, cells were washed with cold PBS, centrifuged and the pellets were resuspended in 200 μL of a non-lysis solution containing 50 μg/mL PI. For the evaluation of apoptosis, cells were not fixed in ethanol and directly resuspended in 200 μL of a hypotonic lysis solution containing 50 μg/mL PI. After incubation at 4°C for 30 min, cells were analyzed with a FACScan flow cytometer (Becton Dickinson) for evaluating the distribution in cell cycle phases or the presence of nuclei with a DNA content lower than the diploid.
smiles,measurement,setting,value
"O=C(O)C1CCCCC1c1c2ccc(=O)cc-2oc2cc(O)ccc12 (stereo not shown) [Compound 7, 2-(6-hydroxy-3-oxo-3H-xanthen-9-yl)cyclohexanecarboxylic acid]",mitochondrial membrane potential (R123 fluorescence),A2058 cells,reduction of the mitochondrial membrane potential
same,Ki,CDC25A,650 ± 40 nM
same,caspase-3 enzymatic activity,caspase-3 activity [1],significant increase of the enzymatic activity of caspase-3
same,caspase-3 enzymatic activity,caspase-3 activity [2],significant increase of the enzymatic activity of caspase-3
same,Bcl-2/Bax ratio,[3]; 8 and 16 h,significant reduction
same,Bcl-2 protein level,[3]; 8 and 16 h,clear reduction of the Bcl-2 level after 8-h treatment
same,Bax protein level,[3]; 16 h,clear increase of Bax
same,level of apoptosis caused by 7 in the presence of Z-VAD-FMK,"SAN cells; 100 μM 7 + 100 μM Z-VAD-FMK, 48 h",significantly decreased
same,apoptosis (nuclei with sub-diploid content),"SAN cells; 100 μM, 24-72 h",increase of apoptosis was significant even at 24-h treatment
same,apoptosis after NAC pre-treatment,"SAN cells; NAC pre-treatment, 100 μM 7, 48 h",in a great part reverted
